For one series, the target named is T1, 5-HT2a (Homo sapiens, UniProt P28223).
T1 construct: purchased Euroscreen/BioSignal Packard Inc
Put plainly: Radioligand binding, 5-HT receptor family: 5-HT2a ([3H]Ketanserin). The settings on record: CHO-K1 human recombinant receptor, [3H]Ketanserin 1 nM; read-out: Binding affinity, IC50 (nM), 5-HT2a.

A further series concerns the target T2, hD3 receptor (Homo sapiens, UniProt P35462).
T2 construct: purchased BioSignal Packard Inc., Montreal, Canada
Put plainly: Dopamine receptor family binding: D3 ([3H]spiperone). The conditions noted are these: [3H]spiperone 1 nM; read-out: Binding affinity, IC50 (nM), D3.

A further series addresses T3, 5-HT1a (Homo sapiens, UniProt P08908).
T3 construct: purchased Euroscreen/BioSignal Packard Inc
T3 sequence (P08908 1-422): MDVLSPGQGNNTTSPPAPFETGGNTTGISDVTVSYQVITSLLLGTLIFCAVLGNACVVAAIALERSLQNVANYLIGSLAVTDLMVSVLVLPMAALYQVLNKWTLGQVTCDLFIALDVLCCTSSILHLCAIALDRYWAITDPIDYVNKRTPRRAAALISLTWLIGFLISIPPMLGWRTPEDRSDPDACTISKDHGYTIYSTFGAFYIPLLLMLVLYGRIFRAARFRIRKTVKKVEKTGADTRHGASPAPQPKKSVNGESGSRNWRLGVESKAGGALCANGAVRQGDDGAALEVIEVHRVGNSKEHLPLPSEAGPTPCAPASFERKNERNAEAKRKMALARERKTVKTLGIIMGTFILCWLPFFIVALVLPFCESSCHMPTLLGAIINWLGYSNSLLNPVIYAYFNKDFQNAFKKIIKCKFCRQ
Description: Radioligand binding, 5-HT receptor family: 5-HT1a ([3H]8-OH-DPAT). The conditions noted are these: CHO-K1 human recombinant receptor, [3H]8-OH-DPAT 0.5 nM; read-out: Binding affinity, IC50 (nM), 5-HT1a.

A further series addresses D1 (Homo sapiens, UniProt P21728). Description: Dopamine receptor family binding: D1. The conditions noted are these: read-out: Binding affinity, IC50 (nM), D1.
A further series concerns the target T4, hD4.2 receptor (Homo sapiens, UniProt P21917, DEL265-296).
T4 construct: purchased BioSignal Packard Inc., Montreal, Canada
T4 sequence (P21917 with tags, fused parts or gaps DEL265-296): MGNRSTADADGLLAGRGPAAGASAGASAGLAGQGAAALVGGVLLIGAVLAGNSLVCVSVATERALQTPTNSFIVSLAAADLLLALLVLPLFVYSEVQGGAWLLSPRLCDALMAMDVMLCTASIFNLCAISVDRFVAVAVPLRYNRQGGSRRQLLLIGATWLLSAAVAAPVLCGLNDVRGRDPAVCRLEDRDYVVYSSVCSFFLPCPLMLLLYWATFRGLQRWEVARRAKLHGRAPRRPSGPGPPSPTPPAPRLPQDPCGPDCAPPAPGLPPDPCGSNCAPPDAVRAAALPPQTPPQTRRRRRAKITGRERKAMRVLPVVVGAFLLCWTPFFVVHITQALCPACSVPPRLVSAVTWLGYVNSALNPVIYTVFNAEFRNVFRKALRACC
Put plainly: Dopamine receptor family binding: D4 ([3H]YM-09151-2). The settings on record: [3H]YM-09151-2 0.06 nM; read-out: Binding affinity, IC50 (nM), D4. The method, then:
(§1) 2-2: Binding Assays of Dopamine Receptor Family
(§2) The radioligands used were [^3H]spiperone (for hD2L and hD3 receptors, 1 nM) and [^3H] YM-09151-2 (for hD4.2 receptor, 0.06 nM). Radioligand bindings were performed by the protocols provided by the supplier of receptor membranes (BioSignal Packard Inc., Montreal, Canada). Briefly, the buffer used in D2 or D3 receptor binding assay was 50 mM Tris-HCl (pH 7.4), 10 mM MgCl2, 1 mM EDTA, or 50 mM Tris-HCl (pH 7.4), 5 mM MgCl2 5 mM EDTA, 5 mM KCl, 1.5 mM CaCl2, 120 mM NaCl, respectively. In [^3H] YM-09151-2 receptor binding assays, the buffer containing 50 mM Tris-HCl (pH 7.4), 5 mM MgCl2, 5 mM EDTA, 5 mM KCl and 1.5 mM CaCl2 was used. […] Competition binding studies were carried out with 7-8 concentrations of the test compound run in duplicate tubes, and isotherms from three assays were calculated by computerized nonlinear regression analysis (GraphPad Prism Program, San Diego, […]) to yield median inhibitory concentration (IC50) values.

The target of series [1] is Human serotonin 5-HT6 receptor (Homo sapiens, UniProt P50406). Description: [3H]LSD binding assay on cloned 5-HT6 receptor. The conditions noted are these: IC50 (nM).
Another series has as its target T5, 5-HT7 (Homo sapiens, UniProt P34969).
T5 construct: purchased Euroscreen/BioSignal Packard Inc
Put plainly: Radioligand binding, 5-HT receptor family: 5-HT7 ([3H]LSD). The conditions noted are these: CHO-K1 human recombinant receptor, [3H]LSD 3 nM; read-out: Binding affinity, IC50 (nM), 5-HT7. On the procedure:
Radioligand bindings were performed according to the test method provided by the supplier of receptor membrane (Euroscreen/BioSignal Packard Inc.). The detailed assay conditions and the results were shown in the following Table 3 and Table 4, respectively.

The target of another series is T6, hD2L receptor (Homo sapiens, UniProt P14416).
T6 construct: purchased BioSignal Packard Inc., Montreal, Canada
Description: Dopamine receptor family binding: D2 ([3H]spiperone). The settings on record: [3H]spiperone 1 nM; read-out: Binding affinity, IC50 (nM), D2. The method, then: as §1, §2

A further series deals with T7, 5-HT2c (Homo sapiens, UniProt P28335).
T7 construct: purchased Euroscreen/BioSignal Packard Inc
T7 sequence (P28335 33-458): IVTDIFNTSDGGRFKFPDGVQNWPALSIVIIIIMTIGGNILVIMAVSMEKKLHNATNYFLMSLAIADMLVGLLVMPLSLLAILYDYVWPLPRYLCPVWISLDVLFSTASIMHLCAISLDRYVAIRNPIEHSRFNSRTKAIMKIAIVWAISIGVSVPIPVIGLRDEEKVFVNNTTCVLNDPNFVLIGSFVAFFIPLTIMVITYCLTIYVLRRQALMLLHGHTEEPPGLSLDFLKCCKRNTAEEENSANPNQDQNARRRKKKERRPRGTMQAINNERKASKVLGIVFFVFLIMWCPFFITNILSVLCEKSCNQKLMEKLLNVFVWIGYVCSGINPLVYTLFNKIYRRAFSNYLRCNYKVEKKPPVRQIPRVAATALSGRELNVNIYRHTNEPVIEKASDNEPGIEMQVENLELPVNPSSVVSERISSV
Description: Radioligand binding, 5-HT receptor family: 5-HT2c ([3H]Mesulergine). The settings on record: CHO-K1 human recombinant receptor, [3H]Mesulergine 1 nM; read-out: Binding affinity, IC50 (nM), 5-HT2c.

Where [2] appears, read: Binding affinity, 5-HT6, Table 4.
[3] abbreviates: binding affinity to the 5-HT6 receptor, Table 2, 1.87 nM [3H]LSD, cloned human receptor membranes from Sf21 cells, 37° C. 60 min.

As a reminder, the IC50 is the midpoint of a concentration-inhibition curve. What is called melting point is the temperature, or range, at which the solid turns liquid.

T6 sequence (P14416 whole entry): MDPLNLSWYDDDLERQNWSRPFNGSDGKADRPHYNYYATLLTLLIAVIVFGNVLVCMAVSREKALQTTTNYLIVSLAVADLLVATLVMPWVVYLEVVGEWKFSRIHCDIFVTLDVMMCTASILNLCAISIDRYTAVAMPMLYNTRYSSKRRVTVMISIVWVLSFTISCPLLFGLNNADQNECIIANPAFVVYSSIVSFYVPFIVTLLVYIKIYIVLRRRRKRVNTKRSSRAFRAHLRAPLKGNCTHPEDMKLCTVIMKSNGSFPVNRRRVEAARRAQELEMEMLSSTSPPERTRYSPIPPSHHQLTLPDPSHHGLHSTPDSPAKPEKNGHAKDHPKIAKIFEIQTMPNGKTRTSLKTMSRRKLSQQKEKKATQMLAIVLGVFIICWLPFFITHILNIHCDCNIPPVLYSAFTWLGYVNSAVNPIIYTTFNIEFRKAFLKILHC
T2 sequence (P35462 whole entry): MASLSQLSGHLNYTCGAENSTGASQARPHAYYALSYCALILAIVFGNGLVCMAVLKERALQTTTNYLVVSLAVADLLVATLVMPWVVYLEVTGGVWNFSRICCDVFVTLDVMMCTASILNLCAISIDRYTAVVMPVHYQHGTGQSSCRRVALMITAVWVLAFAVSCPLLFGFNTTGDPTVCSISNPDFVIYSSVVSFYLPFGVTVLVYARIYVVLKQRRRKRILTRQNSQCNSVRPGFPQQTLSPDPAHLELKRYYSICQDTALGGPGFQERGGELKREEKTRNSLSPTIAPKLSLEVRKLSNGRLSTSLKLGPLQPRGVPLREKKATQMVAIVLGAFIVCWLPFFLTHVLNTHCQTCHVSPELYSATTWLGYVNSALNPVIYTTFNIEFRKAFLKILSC
T5 sequence (P34969 whole entry): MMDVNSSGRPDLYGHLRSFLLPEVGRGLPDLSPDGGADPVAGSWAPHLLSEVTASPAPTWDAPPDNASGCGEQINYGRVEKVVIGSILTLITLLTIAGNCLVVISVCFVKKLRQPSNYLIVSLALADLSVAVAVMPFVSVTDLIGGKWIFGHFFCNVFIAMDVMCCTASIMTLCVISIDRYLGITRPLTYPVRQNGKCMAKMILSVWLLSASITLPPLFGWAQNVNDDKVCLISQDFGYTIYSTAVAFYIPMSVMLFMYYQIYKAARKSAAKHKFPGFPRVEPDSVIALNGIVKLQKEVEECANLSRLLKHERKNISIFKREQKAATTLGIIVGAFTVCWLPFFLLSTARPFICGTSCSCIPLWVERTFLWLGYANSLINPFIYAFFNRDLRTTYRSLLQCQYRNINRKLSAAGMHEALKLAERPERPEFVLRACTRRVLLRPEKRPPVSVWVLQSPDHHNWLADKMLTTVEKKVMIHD
Sequence of D1 (P21728 whole entry): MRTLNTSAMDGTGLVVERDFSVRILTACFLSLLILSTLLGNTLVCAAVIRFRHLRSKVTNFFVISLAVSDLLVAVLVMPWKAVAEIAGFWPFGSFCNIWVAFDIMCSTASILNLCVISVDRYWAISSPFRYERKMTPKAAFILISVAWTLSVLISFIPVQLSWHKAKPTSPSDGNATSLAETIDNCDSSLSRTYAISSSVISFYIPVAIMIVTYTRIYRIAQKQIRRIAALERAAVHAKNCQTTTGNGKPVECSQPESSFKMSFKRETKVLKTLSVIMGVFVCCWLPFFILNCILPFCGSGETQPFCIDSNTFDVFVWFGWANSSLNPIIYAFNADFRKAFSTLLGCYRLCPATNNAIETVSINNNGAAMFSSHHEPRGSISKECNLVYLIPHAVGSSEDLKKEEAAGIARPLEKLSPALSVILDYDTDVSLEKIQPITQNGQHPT
Sequence of Human serotonin 5-HT6 receptor (P50406 whole entry): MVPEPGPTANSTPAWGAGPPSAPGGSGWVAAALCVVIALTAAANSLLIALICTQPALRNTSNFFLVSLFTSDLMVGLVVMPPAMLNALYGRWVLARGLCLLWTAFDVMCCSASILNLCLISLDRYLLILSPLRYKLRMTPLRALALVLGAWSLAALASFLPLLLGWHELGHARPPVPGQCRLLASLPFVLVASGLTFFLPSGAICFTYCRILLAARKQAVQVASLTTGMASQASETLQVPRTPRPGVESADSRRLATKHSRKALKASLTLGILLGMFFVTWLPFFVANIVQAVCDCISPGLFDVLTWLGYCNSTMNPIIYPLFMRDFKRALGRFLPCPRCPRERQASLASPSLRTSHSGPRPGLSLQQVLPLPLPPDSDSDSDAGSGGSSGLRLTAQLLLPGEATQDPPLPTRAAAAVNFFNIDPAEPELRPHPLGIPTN
T1 sequence (P28223 whole entry): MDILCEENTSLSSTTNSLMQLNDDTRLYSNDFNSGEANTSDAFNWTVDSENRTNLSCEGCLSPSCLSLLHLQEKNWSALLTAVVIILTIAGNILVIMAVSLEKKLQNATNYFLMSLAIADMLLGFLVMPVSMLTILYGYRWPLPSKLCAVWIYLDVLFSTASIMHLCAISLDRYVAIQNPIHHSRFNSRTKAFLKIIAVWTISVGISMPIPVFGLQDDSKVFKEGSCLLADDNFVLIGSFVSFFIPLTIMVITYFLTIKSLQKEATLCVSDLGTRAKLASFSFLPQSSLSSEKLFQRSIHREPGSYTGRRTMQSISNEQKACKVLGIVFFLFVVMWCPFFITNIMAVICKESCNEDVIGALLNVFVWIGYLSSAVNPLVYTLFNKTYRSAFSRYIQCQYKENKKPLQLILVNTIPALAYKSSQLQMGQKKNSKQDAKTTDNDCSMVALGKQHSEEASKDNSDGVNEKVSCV

On to `C[C@H](c1ccccc1)N1C(=O)N(Cc2ccccc2)c2cc(Cl)cc(N3CCNCC3)c2S1(=O)=O` [Example 58, 4-Benzyl-6-chloro-1,1-dioxo-2-[(R)-1-phenyl-ethyl]-8-piperazin-1-yl-1,4-dihydro-2H-1λ^6-benzo[1,2,4]thiadiazin-3-one], for which the concentration for half-maximal inhibition (IC50) at 5-HT2a is 549 nM; on hD3 receptor, 398 nM; at 5-HT1a it was greater than 10000 nM; at D1, 1780 nM; at hD4.2 receptor, greater than 10000 nM; in [1] (setting [2]), 2.3 nM. The IC50 in series [1] (setting [3]) turned out to be 2.3 nM; at 5-HT7, 6390 nM; on hD2L receptor, 4500 nM; on 5-HT2c, 424 nM.

On to `C[C@H](c1ccccc1)N1C(=O)N(Cc2ccccc2)c2cc(Cl)cc(N3CCN(C)CC3)c2S1(=O)=O` [Example 25, 4-Benzyl-6-chloro-8-(4-methyl-piperazin-1-yl)-1,1-dioxo-2-[(R)-1-phenyl-ethyl]-1,4-dihydro-2H-1λ^6-benzo[1,2,4]thiadiazin-3-one], for which the IC50 on 5-HT2a was 350 nM; on hD3 receptor, 265 nM; on 5-HT1a, greater than 10000 nM; on D1 it was 963 nM; at hD4.2 receptor, greater than 10000 nM; in [1] (setting [2]), 1.1 nM. Moreover, the IC50 was 1.1 nM in series [1] (setting [3]), 8560 nM on 5-HT7, 1920 nM on hD2L receptor and 691 nM at 5-HT2c.

For `C[C@@H](c1ccccc1)N1C(=O)N(Cc2ccccc2)c2cc(Cl)cc(N3CCNCC3)c2S1(=O)=O` [Example 59, 4-Benzyl-6-chloro-1,1-dioxo-2-[(S)-1-phenyl-ethyl]-8-piperazin-1-yl-1,4-dihydro-2H-1λ^6-benzo[1,2,4]thiadiazin-3-one], the IC50 on 5-HT2a is 272 nM; at hD3 receptor it was 403 nM; at 5-HT1a, 1400 nM; at D1, 4100 nM; at hD4.2 receptor it was greater than 10000 nM; in series [1] (setting [2]), 3 nM. Moreover, the concentration for half-maximal inhibition (IC50) in series [1] (setting [3]) amounted to 3 nM; on 5-HT7, 2300 nM; on hD2L receptor it was 4640 nM; at 5-HT2c it was 508 nM.

On to `Cc1cc(C)cc(CCCN2C(=O)N(Cc3ccccc3)c3cc(Cl)cc(N4CCN(C)CC4)c3S2(=O)=O)c1` [Example 38, 4-Benzyl-6-chloro-2-[3-(3,5-dimethyl-phenyl)-propyl]-8-(4-methyl-piperazin-1-yl)-1,1-dioxo-1,4-dihydro-2H-1λ^6-benzo[1,2,4]thiadiazin-3-one], for which the IC50 on 5-HT2a was 359 nM; at hD3 receptor it was 336 nM; on 5-HT1a, 3420 nM; on D1, 918 nM; at hD4.2 receptor it was greater than 10000 nM; in [1] (setting [2]), 0.6 nM. The IC50 in [1] (setting [3]) is 0.6 nM; at 5-HT7 it was 9140 nM; at hD2L receptor it was greater than 10000 nM; on 5-HT2c, 508 nM.

On to `CN1CCN(c2cc(Cl)cc3c2S(=O)(=O)N(c2ccccc2)C(=O)N3Cc2ccccc2)CC1` [Example 27, 4-Benzyl-6-chloro-8-(4-methyl-piperazin-1-yl)-1,1-dioxo-2-phenyl-1,4-dihydro-2H-1λ^6-benzo[1,2,4]thiadiazin-3-one], for which the IC50 is 4310 nM at 5-HT2a; 5950 nM on hD3 receptor; 2080 nM at 5-HT1a; 2690 nM on D1; greater than 10000 nM at hD4.2 receptor; 3.8 nM in series [1] (setting [2]). The IC50 was 3.8 nM in series [1] (setting [3]), greater than 10000 nM on 5-HT7, greater than 10000 nM on hD2L receptor and 2580 nM on 5-HT2c.

In turn, `CN1CCN(c2cc(Cl)cc3c2S(=O)(=O)N(Cc2cccc4ccccc24)C(=O)N3Cc2ccccc2)CC1` [Example 41, 4-Benzyl-6-chloro-8-(4-methyl-piperazin-1-yl)-2-naphthalen-1-ylmethyl-1,1-dioxo-1,4-dihydro-2H-1λ^6-benzo[1,2,4]thiadiazin-3-one] had a melting point of 114 to 115 °C. In addition, the IC50 at 5-HT2a amounted to 365 nM. The IC50 on hD3 receptor is 420 nM. For the same compound, the concentration for half-maximal inhibition (IC50) at 5-HT1a was greater than 10000 nM. Moreover, the concentration for half-maximal inhibition (IC50) on hD4.2 receptor was greater than 10000 nM. Besides, the IC50 in [1] (setting [2]) amounted to 0.8 nM. The same compound had an IC50 in [1] (setting [3]) of 0.8 nM. Also, the concentration for half-maximal inhibition (IC50) at 5-HT7 was greater than 10000 nM. Moreover, on hD2L receptor, the IC50 is greater than 10000 nM. The IC50 at 5-HT2c is 257 nM.

Turning to `CCCCCCCCN1C(=O)N(Cc2ccccc2)c2cc(Cl)cc(N3CCN(C)CC3)c2S1(=O)=O` [Example 39, 4-Benzyl-6-chloro-8-(4-methyl-piperazin-1-yl)-2-octyl-1,1-dioxo-1,4-dihydro-2H-1λ^6-benzo[1,2,4]thiadiazin-3-one], the melting point fell in the range of 88 to 91 °C. Also, on 5-HT2a, the IC50 turned out to be 1320 nM. For the same compound, on hD3 receptor, the IC50 was determined as 130 nM. The IC50 at 5-HT1a amounted to 894 nM. For the same compound, at hD4.2 receptor, the half-inhibitory concentration (IC50) was greater than 10000 nM. Besides, in [1] (setting [2]), the half-inhibitory concentration (IC50) was 1.8 nM. In addition, the IC50 in [1] (setting [3]) amounted to 1.8 nM. Moreover, at 5-HT7, the IC50 is 3170 nM. The IC50 on hD2L receptor is greater than 10000 nM. The IC50 on 5-HT2c was 1050 nM.

For `CN1CCN(c2cc(Cl)cc3c2S(=O)(=O)N(Cc2cccc(F)c2)C(=O)N3Cc2ccccc2)CC1` [Example 3, 4-Benzyl-6-chloro-2-(3-fluoro-benzyl)-8-(4-methyl-piperazin-1-yl)-1,1-dioxo-1,4-dihydro-2H-1λ^6-benzo[1,2,4]thiadiazin-3-one], the melting point was in the range of 85 to 87 °C. Also, the IC50 at 5-HT2a worked out at 846 nM. Further, at hD3 receptor, the IC50 is 537 nM. In addition, the IC50 on 5-HT1a was found to be 5980 nM. Further, on hD4.2 receptor, the IC50 is greater than 10000 nM. Besides, in series [1] (setting [2]), the concentration for half-maximal inhibition (IC50) was determined as 0.7 nM. The same compound registered an IC50 in [1] (setting [3]) of 0.7 nM. Moreover, on 5-HT7, the IC50 was greater than 10000 nM. The half-inhibitory concentration (IC50) at hD2L receptor is greater than 10000 nM. Also, at 5-HT2c, the IC50 was determined as 2190 nM.

Source of the values: US20100035866A1, “NOVEL SUBSTITUTED-1, 1-DIOXO-BENZO[1,2,4]THIADIAZIN-3ONES, PREPARATION METHOD THEREOF, AND PHARMACEUTICAL COMPOSITION CONTAINING THE SAME” (KOREA RESEARCH INSTITUTE OF CHEMICAL TECHNOLOGY, priority 2006, published 2010).
